In PubChem BioAssay (NCI) one finds TGI and GI50 data, which are given here for nine molecules.

Each structure is given as a SMILES string.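 Compound exposure: 48 hours, 5 concentrations, 96-well plates. At the GI50, growth is halved. The concentration for full growth arrest is given as TGI.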

Some test systems named below: K-562 leukemia; HCT-116 colon; OVCAR-4 ovarian; HCC-2998 colon; KM12 colon; MCF7 breast; RXF 393 renal; LOX IMVI melanoma; HCT-15 colon; IGROV1 ovarian.
Common to all, as to test: NCI anticancer screen, dose series, 48 h

On to `O=C(O)c1cc2ccc3ccccc3c2oc1=O`, for which the TGI with K-562 leukemia, in the assay on HCT-116 colon, in the assay on OVCAR-4 ovarian, with HCC-2998 colon, in the assay with KM12 colon and with MCF7 breast was over 100 µM each time. Besides, the TGI with RXF 393 renal, in the assay with LOX IMVI melanoma, in the assay with HCT-15 colon and with IGROV1 ovarian was over 100 µM throughout.
Take `CNC(=O)c1cccc2cc(Oc3ccnc4cc(OCC5(N)CC5)c(OC)cc34)ccc12`: the GI50 is 3.55 µM with K-562 leukemia; 5.2 µM in the assay with HCT-116 colon; 2.89 µM in the assay with OVCAR-4 ovarian; 11 µM in the assay on HCC-2998 colon; 6.17 µM in the assay on KM12 colon; 3.89 µM in the assay on MCF7 breast. In addition, the GI50 was 4.42 µM in the assay with RXF 393 renal, 3.89 µM in the assay on LOX IMVI melanoma, 6.56 µM with HCT-15 colon and 7.63 µM in the assay on IGROV1 ovarian. Further, the TGI was determined as 16.7 µM with K-562 leukemia; 17.8 µM with HCT-116 colon; 21.8 µM in the assay on OVCAR-4 ovarian; 26.2 µM in the assay on HCC-2998 colon; 19.7 µM with KM12 colon; 17.8 µM with MCF7 breast. The TGI with RXF 393 renal amounted to 20.4 µM; in the assay with LOX IMVI melanoma, 17.1 µM; in the assay with HCT-15 colon, 20.2 µM; in the assay with IGROV1 ovarian, 28.2 µM.
Consider `O=S(=O)(Nc1ccc(Br)c(Cl)c1)c1ccc(-c2cnc(C3CC3)o2)cc1`, for which the GI50 in the assay on K-562 leukemia is 0.323 µM; in the assay on HCT-116 colon, 0.432 µM; with OVCAR-4 ovarian, 2.67 µM; with HCC-2998 colon, 1.61 µM; in the assay with KM12 colon, 0.445 µM; in the assay with MCF7 breast, 0.339 µM. The GI50 is 0.348 µM with RXF 393 renal, 0.565 µM in the assay on LOX IMVI melanoma, 0.445 µM in the assay with HCT-15 colon and 0.577 µM in the assay on IGROV1 ovarian. Moreover, the TGI is over 100 µM in the assay with K-562 leukemia; 13.6 µM with HCT-116 colon; 21.9 µM in the assay with OVCAR-4 ovarian; 11.6 µM in the assay on HCC-2998 colon; 14.9 µM in the assay on KM12 colon; 16 µM in the assay with MCF7 breast. Further, the TGI in the assay on RXF 393 renal amounted to 3.48 µM; in the assay with LOX IMVI melanoma it was 16.2 µM; in the assay with HCT-15 colon, 13.7 µM; in the assay on IGROV1 ovarian, 14.8 µM.
As to `COc1cc2oc3cc(=O)cc4oc(-c5ccccc5)cc(c2c2c1CCC(c1ccccc1)O2)c43` (centres undefined), the TGI in the assay with K-562 leukemia was 83.9 µM; in the assay on HCT-116 colon, over 100 µM; with OVCAR-4 ovarian, over 100 µM; in the assay on HCC-2998 colon, over 100 µM; in the assay on KM12 colon it was 65.5 µM; in the assay on MCF7 breast, 59.2 µM. The TGI was over 100 µM in the assay with RXF 393 renal, over 100 µM in the assay on LOX IMVI melanoma, 91.9 µM in the assay on HCT-15 colon and over 100 µM in the assay on IGROV1 ovarian.
Turning to `c1cc2n(n1)CCN2`, the TGI in the assay with K-562 leukemia was over 10000 µM; in the assay on HCT-116 colon, over 10000 µM; in the assay on OVCAR-4 ovarian, over 9780 µM; in the assay on HCC-2998 colon, over 7040 µM; in the assay with KM12 colon it was over 10000 µM; with MCF7 breast it was over 8650 µM. The TGI in the assay on RXF 393 renal is 9590 µM; in the assay with LOX IMVI melanoma, 7690 µM; in the assay on HCT-15 colon it was over 10000 µM; with IGROV1 ovarian, over 10000 µM.
For the molecule `COc1c(O)cc2oc(-c3ccc(O)cc3)cc(=O)c2c1O`, the TGI is over 100 µM with K-562 leukemia; over 100 µM in the assay on HCT-116 colon; over 100 µM in the assay on OVCAR-4 ovarian; 80.3 µM in the assay with HCC-2998 colon; over 100 µM in the assay with KM12 colon; over 100 µM with MCF7 breast. The TGI is over 100 µM in the assay on RXF 393 renal, over 100 µM with LOX IMVI melanoma, over 100 µM in the assay with HCT-15 colon and 76.9 µM in the assay on IGROV1 ovarian.
For `COc1cc(Nc2c(C#N)cnc3cc(OCCCN4CCN(C)CC4)c(OC)cc23)c(Cl)cc1Cl`, the GI50 is 0.0211 µM in the assay on K-562 leukemia; 0.746 µM with HCT-116 colon; 4.6 µM with OVCAR-4 ovarian; 3.08 µM with HCC-2998 colon; 0.331 µM with KM12 colon; 2.79 µM in the assay with MCF7 breast. Besides, the GI50 in the assay on RXF 393 renal is 0.85 µM; in the assay with LOX IMVI melanoma, 1.15 µM; in the assay with HCT-15 colon, 1.21 µM; with IGROV1 ovarian it was 0.279 µM. Besides, the TGI was 3.82 µM with K-562 leukemia; 4.71 µM in the assay on HCT-116 colon; 21 µM in the assay on OVCAR-4 ovarian; 9.21 µM with HCC-2998 colon; 7.24 µM in the assay with KM12 colon; 17.8 µM in the assay with MCF7 breast. The TGI in the assay on RXF 393 renal was 6.02 µM; in the assay with LOX IMVI melanoma, 2.75 µM; in the assay with HCT-15 colon it was 11.8 µM; with IGROV1 ovarian, 3.09 µM.
For the molecule `COc1cccc2c1ccc1nc3cccc(C(=O)N[C@H](C)CN(C)C)c3nc12`, the GI50 in the assay on K-562 leukemia is 0.0474 µM; with HCT-116 colon it was 0.0379 µM; with OVCAR-4 ovarian, 0.0927 µM; with HCC-2998 colon it was 0.108 µM; with KM12 colon it was 0.0724 µM; in the assay with MCF7 breast it was 0.0341 µM. For the same molecule, the GI50 is 0.0984 µM with RXF 393 renal, 0.0474 µM with LOX IMVI melanoma, 0.053 µM in the assay on HCT-15 colon and 0.0549 µM with IGROV1 ovarian. Moreover, the TGI with K-562 leukemia was 4.77 µM; in the assay on HCT-116 colon, 0.508 µM; with OVCAR-4 ovarian, 0.894 µM; in the assay on HCC-2998 colon, 0.298 µM; in the assay on KM12 colon, 2.33 µM; with MCF7 breast it was 1.58 µM. Also, the TGI with RXF 393 renal came to 0.35 µM; in the assay with LOX IMVI melanoma, 0.55 µM; in the assay with HCT-15 colon, 10.8 µM; in the assay on IGROV1 ovarian, 11.9 µM.
Regarding `O=C(Nc1ccncc1)C(=O)c1cn(Cc2ccc(Cl)cc2)c2ccccc12`, the GI50 was 0.0265 µM with K-562 leukemia; 0.048 µM with HCT-116 colon; 0.106 µM with OVCAR-4 ovarian; 0.114 µM in the assay with HCC-2998 colon; 0.0384 µM in the assay on KM12 colon; 0.0363 µM in the assay with MCF7 breast. Besides, the GI50 with RXF 393 renal is 0.0302 µM; in the assay on LOX IMVI melanoma, 0.0574 µM; with HCT-15 colon, 0.0408 µM; in the assay with IGROV1 ovarian, 0.141 µM. Besides, the TGI in the assay with K-562 leukemia is 34.8 µM; with HCT-116 colon, over 100 µM; with OVCAR-4 ovarian, over 100 µM; with HCC-2998 colon, over 100 µM; in the assay with KM12 colon, over 100 µM; in the assay on MCF7 breast, over 100 µM. Moreover, the TGI in the assay on LOX IMVI melanoma, in the assay on HCT-15 colon and in the assay on IGROV1 ovarian was over 100 µM in each case.
